The nature of this data set: photoluminescence quantum yield (fraction); solvent given as SMILES.

Each structure is given as a SMILES string.

Regarding `N#CC1=C(N)n2c(=O)c3ccccc3c(=O)n2C1c1ccccc1` (stereo unspecified), where the note is “in CS(C)=O”, the photoluminescence quantum yield was determined as 0.057.
Regarding `COc1cccc2c1C(=O)c1ccccc1-2`, the photoluminescence quantum yield (in CC#N) is 0.0073; the photoluminescence quantum yield (in CC(C)O) amounted to 0.029; the photoluminescence quantum yield (in CCCCO) was 0.023; the photoluminescence quantum yield (in CCCO) stood at 0.021; the photoluminescence quantum yield (in CCO) was 0.02; the photoluminescence quantum yield (in CO) is 0.011.
In the case of `CCN(CC)c1ccc(-c2ccc(-c3nc(N4CCOCC4)c4ccccc4n3)s2)cc1`, the photoluminescence quantum yield was 0.23 (in CC#N) and 0.67 (in Cc1ccccc1).
`Cc1ccc(-c2c3nc(c(-c4ccc(C)cc4)c4ccc([nH]4)c(-c4ccc(OC(=O)C(C)c5cccc(C(=O)c6ccccc6)c5)cc4)c4nc(c(-c5ccc(C)cc5)c5ccc2[nH]5)C=C4)C=C3)cc1` (stereo unspecified) yielded a photoluminescence quantum yield (in ClCCl) of 0.12.
Take `Cc1ccc2c(c1)C(=O)c1ccncc1-2`: the photoluminescence quantum yield worked out at 0.019 (in CC#N); 0.0032 (in CCCCCC); 0.036 (in CCOC(C)=O); 0.031 (in Cc1ccccc1); 0.022 (in ClCCl).
Consider `CC1(C)C(/C=C/C2=C(Cl)C(=C/C=C3/N(Cc4ccccc4)c4ccccc4C3(C)C)/CCC2)=[N+](Cc2ccccc2)c2ccccc21`, for which the photoluminescence quantum yield (in CCO) amounted to 0.117.
For the compound `COc1cc2c(cc1OC)C1=C3C(=O)N4C=Cc5cc(OC)c(OC)cc5C4=C3C(=O)N1C=C2`, the photoluminescence quantum yield came out at 0.7 (in CN(C)C=O) and 0.85 (in ClC(Cl)Cl).
On to `Cc1ccc2[nH]c(-c3ccc(-c4ccc(-c5ccc(-c6nc7cc(C)ccc7[nH]6)cc5)c(C)c4)cc3)nc2c1`, for which the photoluminescence quantum yield (in CN(C)C=O) turned out to be 0.86.
`CC(C)[Si](C#Cc1c2ccc(C(C)(C)C)cc2c(C#C[Si](C(C)C)(C(C)C)C(C)C)c2ccc(C(C)(C)C)cc12)(C(C)C)C(C)C`: where the note is “in Cc1ccccc1”, the photoluminescence quantum yield came out at 0.92.
As to `c1cc2ccc3ccc4ccc5ccc1c1c2c3c4c51`, for the setting “in C1CCCCC1”, the photoluminescence quantum yield was 0.024.
With `O=c1oc2ccc3ccccc3c2nc1-c1ccccc1`, the photoluminescence quantum yield runs as follows: (in CC#N) 0.56; (in CCCCCC) 0.12; (in CO) 0.5; (in c1ccccc1) 0.46.
For `CCCCN(CCCC)c1ccc(C#Cc2cc(C#Cc3ccc(N(CCCC)CCCC)cc3)c(C#Cc3c(F)c(F)c(F)c(F)c3F)cc2C#Cc2c(F)c(F)c(F)c(F)c2F)cc1`, the photoluminescence quantum yield (in ClCCl) is 0.3.
Compound `CCOC(=O)COc1ccc(/C=C/C2=C3c4ccccc4C(c4ccc[nH]4)=[N+]3[B-](F)(F)n3ccc(C)c32)cc1` displayed a photoluminescence quantum yield (in C1CCOC1) of 0.003; a photoluminescence quantum yield (in CC#N) of 0.003; a photoluminescence quantum yield (in CCCCCC) of 0.009; a photoluminescence quantum yield (in CO) of 0.005; a photoluminescence quantum yield (in Cc1ccccc1) of 0.004; a photoluminescence quantum yield (in ClCCl) of 0.003.
In the case of `Nc1cccnc1`, the photoluminescence quantum yield (in C1CCCCC1) was determined as 0.02; the photoluminescence quantum yield (in CC#N) was 0.05; the photoluminescence quantum yield (in CCO) stood at 0.14; the photoluminescence quantum yield (in CCOCC) turned out to be 0.03; the photoluminescence quantum yield (in O) stood at 0.16.
For `Cc1ccc(-c2nc(-c3cccc(C#N)c3)[nH]c2-c2ccc(C)cc2)cc1`, under “in CO”, the photoluminescence quantum yield stood at 0.17.
Consider `COCCOCCOCCOCCOc1ccc(OCCOCCOCCOCCOC)c(C=O)c1`, for which the photoluminescence quantum yield is 0.19 (in CC(C)(C)O); 0.29 (in CC(C)CO); 0.24 (in CC(C)O); 0.32 (in CCCCO); 0.27 (in CCCO); 0.25 (in CCO). This compound returned a photoluminescence quantum yield (in CN(C)C=O) of 0.02; a photoluminescence quantum yield (in CNC=O) of 0.1; a photoluminescence quantum yield (in CO) of 0.22; a photoluminescence quantum yield (in NC=O) of 0.43; a photoluminescence quantum yield (in O) of 0.11.
The compound `COCCC1=Cc2nc1ccc1[nH]c(cc1CCOC)c1nc(c(N)cc3[nH]c2cc3CCOC)C(CCOC)=C1` returned a photoluminescence quantum yield (in Cc1ccccc1) of 0.04.
`N#Cc1c(-n2c3ccccc3c3cc(Br)ccc32)c(-n2c3ccccc3c3cc(Br)ccc32)c(C#N)c(-n2c3ccccc3c3cc(Br)ccc32)c1-n1c2ccccc2c2cc(Br)ccc21` returned a photoluminescence quantum yield (in Cc1ccccc1) of 0.53.
In turn, `CCCCC1C(=O)c2cc(Oc3ccc(C(C)(C)C)cc3)c3c4c(Oc5ccc(C(C)(C)C)cc5)cc5c6c(cc(Oc7ccc(C(C)(C)C)cc7)c(c7c(Oc8ccc(C(C)(C)C)cc8)cc(c2c37)C1=O)c64)C1=C(C5=O)c2ccc3ccccc3[n+]2[B-](F)(F)O1` (stereo unspecified) gave a photoluminescence quantum yield (in ClCCl) of 0.5.
`COc1ccc(C2=C3C(C)=CC(C=Cc4ccc(C(=O)OC5C[C@H]6CCC5(C)C6(C)C)cc4)=[N+]3[B-](F)(F)n3c(C)cc(C)c32)cc1` (stereo partly specified) yielded a photoluminescence quantum yield (in Cc1ccccc1) of 0.41.
On to `CCC1=C(C)C(=O)n2c1cc1c(C)c(CC(=O)O)c(C)n1c2=O`, for which the photoluminescence quantum yield reads like this: (in CO) 0.91; (in CS(C)=O) 1; (in ClC(Cl)Cl) 0.96; (in c1ccccc1) 0.88.
With `O=Cc1ccc(-c2ccc(O)c(-c3nc4ccccc4s3)c2)o1`, the photoluminescence quantum yield runs as follows: (in CCO) 0.0246; (in ClCCl) 0.0632; (in O) 0.02.
Take `Cc1nc2cccc(-c3nc4ccccc4o3)c2c(=O)[nH]1`: the photoluminescence quantum yield (in CN(C)C=O) was 0.392.
The compound `CC1(C)CC(/C=C/c2ccc(-n3ccnc3)cc2)=CC(=C(C#N)C#N)C1` showed a photoluminescence quantum yield (in CCO) of 0.0001.
`CCn1c(-c2ccc(-c3ccc4c(c3)C(c3ccccc3)(c3ccccc3)c3ccccc3-4)cc2)c(-c2ccc3ccccc3c2)c(-c2ccc3ccccc3c2)c1-c1ccc(-c2ccc3c(c2)C(c2ccccc2)(c2ccccc2)c2ccccc2-3)cc1` had a photoluminescence quantum yield (in CCOC(C)=O) of 0.99.
Turning to `N#Cc1ccc(C2=Cc3cc4ccccc4cc3P2(=O)c2ccccc2)cc1` (stereo unspecified), the photoluminescence quantum yield (in ClCCl) is 0.54.
`Cc1ccc(-n2c(-c3ccccc3O)nc(-c3ccccc3O)c2-c2ccccc2O)cc1`: the photoluminescence quantum yield is, setting by setting: (in C1CCOC1) 0.55; (in CC(C)O) 0.6; (in CO) 0.54; (in CS(C)=O) 0.31; (in ClC(Cl)Cl) 0.32; (in ClCCl) 0.37.
Turning to `CC(C)(C)c1ccc(-c2cc3c(-c4ccc(C(C)(C)C)cc4)c4cccc5c(-c6ccc(C(C)(C)C)cc6)cc6c(-c7ccc(C(C)(C)C)cc7)c7cccc2c7c3c6c54)cc1`, the photoluminescence quantum yield (in C1CCCCC1) was 0.23; the photoluminescence quantum yield (in CC#N) amounted to 0.2; the photoluminescence quantum yield (in CO) was found to be 0.21; the photoluminescence quantum yield (in Cc1ccccc1) came to 0.41; the photoluminescence quantum yield (in ClCCl) worked out at 0.27.
`CCN(C)c1ccc(C2=C3C(C)=CC(/C=C/c4ccc(OCCCN=[N+]=[N-])cc4)=[N+]3[B-](F)(F)n3c(C)cc(C)c32)cc1` had a photoluminescence quantum yield (in CO) of 0.69.
In the case of `COC(=O)c1cc(=O)n(Cc2ccccc2)c2cc(-c3ccc(N(C)C)cc3)sc12`, the photoluminescence quantum yield is 0.05 (in CC#N) and 0.98 (in ClCCl).
Under “in ClCCl”, `Cc1cc(-c2ccc(C(C)(C)C)cc2)c2nsnc2c1-c1ccc(N(c2ccccc2)c2ccccc2)cc1` yielded a photoluminescence quantum yield of 0.18.
`C(=C\c1nc2ccccc2[nH]1)/c1ccc(/C=C/c2nc3ccccc3[nH]2)cc1` came in with a photoluminescence quantum yield (in C1CCOC1) of 0.855; a photoluminescence quantum yield (in CC#N) of 0.679; a photoluminescence quantum yield (in CC(C)=O) of 0.609; a photoluminescence quantum yield (in CN(C)C=O) of 0.775; a photoluminescence quantum yield (in CO) of 0.738; a photoluminescence quantum yield (in CS(C)=O) of 0.63.
For `COc1cc2sc3nc(-c4ccccc4OC)sc3c2cc1OC`, the photoluminescence quantum yield (in CS(C)=O) was 0.76.
Regarding `CC1=C(c2ccccc2)Oc2cc3nc4ccccc4nc3c3cccc1c23`, under “in ClCCl”, the photoluminescence quantum yield came out at 0.45.
In the case of `C(=C\c1ccc(N(c2ccccc2)c2ccccc2)cc1)/c1ccc(-c2ccc(/C=C/c3ccc(N(c4ccccc4)c4ccccc4)cc3)cc2)cc1`, the photoluminescence quantum yield (in ClCCl) stood at 0.86.
In turn, `CC(C)Nc1cc2c(cc1F)c(=O)c1cc(F)c(NC(C)C)cc1n2C(C)C` displayed a photoluminescence quantum yield (in CCO) of 0.32.
As for `CCN(CC)c1ccc2c(c1)oc(=O)c1cc3cnn(-c4ccccc4)c3nc12`, the photoluminescence quantum yield by setting is: (in C1CCCCC1) 0.717; (in CCOC(C)=O) 0.233; (in CN(C)C=O) 0.023; (in CO) 0.002; (in ClCCl) 0.325.
The compound `CN(C)c1ccc(/C=C/c2cc(/C=C/c3ccc(N(C)C)cc3)nc(/C=C/c3ccc(C(F)(F)F)cc3)n2)cc1` displayed a photoluminescence quantum yield (in ClCCl) of 0.72.
Still for that read-out and setting: the figure for `CCCCN(CCCC)c1ccc(C#Cc2cc(C#Cc3ccc(N(CCCC)CCCC)cc3)c(C#Cc3ccc(C(F)(F)F)cc3)cc2C#Cc2ccc(C(F)(F)F)cc2)cc1` is 0.38; for `FC(F)(F)c1ccc(/C=C/c2nc(/C=C/c3ccc(N(c4ccccc4)c4ccccc4)cc3)cc(/C=C/c3ccc(N(c4ccccc4)c4ccccc4)cc3)n2)cc1` it is 1.
`Cc1ccc(-n2c3ccccc3c3cc(C(=C(C#N)C#N)c4ccccc4)ccc32)cc1`: the photoluminescence quantum yield runs as follows: (in C1CCOC1) 0.12; (in CC#N) 0.07; (in CC(C)=O) 0.05; (in CCOC(C)=O) 0.09; (in CO) 0.01; (in CS(C)=O) 0.02. In addition, the photoluminescence quantum yield by setting is: (in Cc1ccccc1) 0.14; (in ClC(Cl)Cl) 0.13.
For `CCCCCCCCOc1ccc(C#Cc2ccc3c(c2)c2ccccc2n3CCCCCCCC)c(OCCCCCCCC)c1`, where the note is “in ClCCl”, the photoluminescence quantum yield came out at 0.33.
The compound `O=Cc1nc2ccc(C#Cc3ccc(N(c4ccc(C#Cc5ccc6nc(C=O)sc6c5)cc4)c4ccc(C#Cc5ccc6nc(C=O)sc6c5)cc4)cc3)cc2s1` gave a photoluminescence quantum yield (in Cc1ccccc1) of 0.65.
Take `Cc1cc(-c2ccc(-n3c4ccccc4c4ccccc43)cc2)nc(-c2ccc(-n3c4ccccc4c4ccccc43)cc2)n1`: the photoluminescence quantum yield runs as follows: (in C1CCOC1) 0.59; (in CN(C)C=O) 0.63; (in Cc1ccccc1) 0.64; (in ClC(Cl)Cl) 0.61.

Values taken from the Deep4Chem optical property database.
